Consider one compound from article PMC10967203, “Rolapitant treats lung cancer by targeting deubiquitinase OTUD3” (Cell Communication and Signaling : CCS, 2024).

The target of the experiment is T1, OTUD3 (Homo sapiens, UniProt Q5T2D3).
T1 sequence (Q5T2D3 1-398): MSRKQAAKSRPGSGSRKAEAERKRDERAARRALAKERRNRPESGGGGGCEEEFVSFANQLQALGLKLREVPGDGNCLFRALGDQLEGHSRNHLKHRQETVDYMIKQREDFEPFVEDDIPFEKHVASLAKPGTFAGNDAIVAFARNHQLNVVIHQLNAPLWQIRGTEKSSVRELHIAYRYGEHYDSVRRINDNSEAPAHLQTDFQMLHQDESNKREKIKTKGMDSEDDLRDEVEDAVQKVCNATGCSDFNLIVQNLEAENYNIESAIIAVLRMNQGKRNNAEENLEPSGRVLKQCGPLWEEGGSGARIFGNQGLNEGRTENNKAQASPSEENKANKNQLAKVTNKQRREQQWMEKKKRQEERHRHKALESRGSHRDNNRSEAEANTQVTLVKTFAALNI
Briefly: microscale thermophoresis (MST) with labeled OTUD3; supported by in vitro K48 di-ubiquitin cleavage assay with purified OTUD3 OTU (aa […]) at […] Rolapitant. The experiment is classed as binding. In general terms: Microscale thermophoresis detects binding through changes in fluorescence in a small temperature gradient.

Take `C[C@@H](OC[C@@]1(c2ccccc2)CC[C@]2(CCC(=O)N2)CN1)c1cc(C(F)(F)F)cc(C(F)(F)F)c1` [Rolapitant]: the “microscale thermophoresis (MST) with labeled OTUD3; supported by in vitro K48 di” value was “MST (microscale thermophoresis) assays shown that OTUD3 could directly bind to Rolapitant in vitro”.
